Values after ≈ are worked out from the molar mass of the structure shown.
Assays:
Af 3626 (ATCC strain) = assay: MIC against azole and echinocandin resistant fungal strains (CLSI); format: cell-based; settings: read-out: MIC Af 3626
Protocol: (§1) This experiment was performed following the standard CLSI protocol.

[1] = test system: Af F12776, azole resistant (Y431C); assay: as above; format: cell-based; settings: read-out: MIC Af F12776
Protocol: as §1

[2] = test system: Af F14946, azole resistant (G138C); assay: as above; format: cell-based; settings: read-out: MIC Af F14946
Protocol: as §1

[3] = test system: Af F16134, azole resistant (M220K); assay: as above; format: cell-based; settings: read-out: MIC Af F16134
Protocol: as §1

[4] = test system: Af F16216, azole resistant (L98H + TR); assay: as above; format: cell-based; settings: read-out: MIC Af F16216
Protocol: as §1

[5] = test system: Af F7075, azole resistant (G54E); assay: as above; format: cell-based; settings: read-out: MIC Af F7075
Protocol: as §1

[6] = test system: EMFR-S678P, echinocandin resistant; assay: as above; format: cell-based; settings: read-out: MIC EMFR-S678P
Protocol: as §1

[7] = In vivo tolerance in mice: survival and distress; settings: tail vein, 24 h
CEA10 (clinical isolate) = assay: MIC against azole and echinocandin resistant fungal strains (CLSI); format: cell-based, A. funigatus; settings: read-out: MIC CEA10
Protocol: as §1

[8] = In vivo toxicity in murine model: mice alive / distress-free; settings: 45 mg/kg IV, 24 h

C[C@@H](c1ncncc1F)[C@](O)(Cn1cncn1)c1ccc(F)cc1F [Voriconazole]
MIC (Af 3626 (ATCC strain)): 0.72 µM (≈ 0.252 µg/mL)
MIC [1]: > 11.5 µM
MIC [2]: > 11.5 µM
MIC [3]: > 11.5 µM
MIC [4]: > 11.5 µM
MIC [5]: 5.73 µM (≈ 2 µg/mL)

CC[C@H](C)C[C@H](C)CCCCCCCCC(=O)N[C@H]1C[C@@H](O)[C@@H](NCCN)NC(=O)[C@@H]2[C@@H](O)CCN2C(=O)[C@H]([C@H](O)CCN)NC(=O)[C@H]([C@H](O)[C@@H](O)c2ccc(O)cc2)NC(=O)[C@@H]2C[C@@H](O)CN2C(=O)[C@H]([C@@H](C)O)NC1=O [Caspofungin]
MIC (Af 3626 (ATCC strain)): 0.41 µM (≈ 0.448 µg/mL)
MIC [3]: 0.21 µM (≈ 0.23 µg/mL)
MIC [4]: 0.41 µM (≈ 0.448 µg/mL)
MIC [5]: 0.82 µM (≈ 0.897 µg/mL)
MIC [6]: > 3.3 µM

C[C@H](CCC(=O)O)[C@H]1CC[C@H]2[C@@H]3CC[C@@H]4C[C@H](O)CC[C@]4(C)[C@H]3C[C@H](O)[C@]12C [Deoxycholate]
Distressed ([7]; Dose 1 mg/kg): 0/4
Survival (alive/total) ([7]; Dose 1 mg/kg): 4/4
Distressed ([7]; Dose 4 mg/kg): 0/4
Survival (alive/total) ([7]; Dose 4 mg/kg): 4/4
Distressed ([7]; Dose 45 mg/kg): 0/4
Survival (alive/total) ([7]; Dose 45 mg/kg): 4/4

CC[C@@H]([C@H](C)O)n1ncn(-c2ccc(N3CCN(c4ccc(OC[C@@H]5CO[C@@](Cn6cncn6)(c6ccc(F)cc6F)C5)cc4)CC3)cc2)c1=O [Posaconazole]
MIC (CEA10 (clinical isolate)): 0.18 µM (≈ 0.126 µg/mL)
MIC [4]: 1.43 µM (≈ 1 µg/mL)

C[C@@H]1[C@H](O)[C@@H](C)/C=C/C=C/C=C/C=C/C=C/C=C/C=C/[C@H](O[C@@H]2O[C@H](C)[C@@H](O)[C@H](N)[C@H]2O)C[C@@H]2O[C@](O)(C[C@@H](O)C[C@@H](O)[C@H](O)CC[C@@H](O)C[C@@H](O)CC(=O)O[C@H]1C)C[C@H](O)[C@H]2C(=O)O [C2′epiAmB]
# of mice alive [8]: 4/4
# of mice distress-free [8]: 4/4

From patent US12655173B2, “Hybrid amide derivatives of amphotericin B” (priority 2020, dated 2026)
